Experimental data: US12503453B2, “USP7 inhibition” (Dana-Farber Cancer Institute, Inc., priority 2018, dated 2025)

How the values were obtained:
[1] = system: Ewing sarcoma cell lines, TP53 WT and mutant; conditions: recently reported study; cited from earlier work
[2] = system: Ewing sarcoma cell lines, TP53 WT and mutant; assay: Cell proliferation (CellTiter-Glo), panel of Ewing sarcoma cell lines; assay type: cell-based; conditions: same set of cell lines
Method: Cells were plated in 384-well culture-treated plates and allowed to settle overnight. After drug treatment and appropriate incubation time, cell viability was assessed using the CellTiter-Glo Luminescent Cell Viability Assay (Promega). Luminescence was read on a Fluostar Omega Reader (BMG Labtech).

[3] = target: full length USP7 (Homo sapiens (Human), UniProt Q93009); assay: Ub-AMC kinetic assay (ki and kinact); assay type: biochemical; conditions: pre-incubation 5 min-3 hours; read-out: inhibition constant (Ki)
Chain of full length USP7 (Q93009 whole entry): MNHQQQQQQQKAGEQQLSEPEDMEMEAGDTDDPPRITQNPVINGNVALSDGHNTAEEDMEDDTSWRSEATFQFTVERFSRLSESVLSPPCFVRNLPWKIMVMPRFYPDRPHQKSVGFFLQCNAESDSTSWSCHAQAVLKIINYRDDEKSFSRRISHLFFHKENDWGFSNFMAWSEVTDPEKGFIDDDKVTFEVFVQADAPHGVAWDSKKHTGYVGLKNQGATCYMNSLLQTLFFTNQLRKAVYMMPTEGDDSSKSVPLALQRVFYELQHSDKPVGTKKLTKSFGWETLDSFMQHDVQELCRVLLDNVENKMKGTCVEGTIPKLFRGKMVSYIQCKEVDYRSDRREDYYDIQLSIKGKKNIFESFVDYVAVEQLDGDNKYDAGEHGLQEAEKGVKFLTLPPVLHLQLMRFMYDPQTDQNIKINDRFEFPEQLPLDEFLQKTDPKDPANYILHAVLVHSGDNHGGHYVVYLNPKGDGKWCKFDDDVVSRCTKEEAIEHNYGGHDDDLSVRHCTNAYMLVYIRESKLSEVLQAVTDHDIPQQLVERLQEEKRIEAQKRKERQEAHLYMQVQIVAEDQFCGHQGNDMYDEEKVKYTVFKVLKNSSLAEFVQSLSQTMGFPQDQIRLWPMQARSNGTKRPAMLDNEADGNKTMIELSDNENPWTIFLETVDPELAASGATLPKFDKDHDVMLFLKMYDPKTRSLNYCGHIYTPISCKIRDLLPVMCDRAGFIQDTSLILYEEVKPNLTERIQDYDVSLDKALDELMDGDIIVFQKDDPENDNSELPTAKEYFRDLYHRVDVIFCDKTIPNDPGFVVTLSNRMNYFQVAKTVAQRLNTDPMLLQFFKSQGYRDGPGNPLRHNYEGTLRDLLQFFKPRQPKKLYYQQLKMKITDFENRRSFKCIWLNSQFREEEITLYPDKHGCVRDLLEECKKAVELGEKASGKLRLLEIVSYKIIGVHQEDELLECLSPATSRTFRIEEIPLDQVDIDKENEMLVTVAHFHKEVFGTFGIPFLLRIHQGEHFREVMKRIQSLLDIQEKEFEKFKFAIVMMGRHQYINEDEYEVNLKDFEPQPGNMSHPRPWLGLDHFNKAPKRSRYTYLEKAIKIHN
Method: Full length USP7 was tested for its activity in Ubiquitin-AMC assay in presence or absence of inhibitors. USP7 (5 nM) was pre-incubated for 6 hours at room temperature with different concentrations of inhibitors or DMSO as a control in 50 mM HEPES pH 7.5, 0.5 mM EDTA, 11 μM ovalbumin, and 5 mM DTT. Ubiquitin-AMC (Boston Biochem) was then added to a final concentration of 500 nM. The initial rate of the reaction was measured by collecting fluorescence data at one minute intervals over 30-minute period using a Clariostar fluorescence plate reader at excitation and emission wavelength of 345 and 445 nm respectively. The calculated initial rate values were plotted against inhibitor concentrations to determine IC50s. All the experimental data were plotted using Prism GraphPad. All assays for each compound were performed at least twice for each compound.
To determine kobs, the time course curves were fit to the equation y=ymax(1−exp(−kobs·x)). The kobs values were then plotted against the inhibitor concentrations and fit to the equation y=kinact/(1+(ki/x)) to obtain the values for ki and kinact.

Ki [3]	Compound	activity against WT and TP53-KO Ewing Sarcoma cells [1]	specificity for TP53-WT expressing cells [2]
–	CC(=O)c1cc([N+](=O)[O-])c(Sc2cccc(Cl)c2Cl)s1 [P5091]	equipotent activity against WT and TP53-KO Ewing Sarcoma cells	little to no specificity for TP53-WT expressing cells
2.8 ± 1.8 nM	CN1CCN(CCC(=O)Nc2ccc3c(=O)n(CC4(O)CCN(C(=O)CCCCNC(=O)c5ccc6c(Cl)c7c(nc6c5)CCCC7)CC4)cnc3c2)CC1 [compound 1, 9-chloro-N-(5-(4-hydroxy-4-((7-(3-(4-methylpiperazin-1-yl)propanamido)-4-oxoquinazolin-3(4H)-yl)methyl)piperidin-1-yl)-5-oxopentyl)-5,6,7,8-tetrahydroacridine-3-carboxamide]	–	–
